{"source": "the supplement of paper PMC10307832", "assay_in_all_cases": "relative viability (nuclei count vs DMSO), 5 days (fraction); higher = more cells survive", "key": {"RERF-LC-KJ": {"system": "RERF-LC-KJ", "procedure,_shortened": "(§1)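 Cells from lung cancer lines were seeded into 1536-well plates and, one day later, dosed by pin tool. Treatments were either a single drug or a fixed dose of an anchor drug with five library-drug doses (not always all listed) in √10 steps. After 5 days, nuclei were stained in a one-step fixation (final 0.05% Triton X-100, 1% formaldehyde, 1 ug/ml Hoechst) and counted on 4× images, and relative viability is the treated-to-vehicle nuclei ratio, as the median of duplicate plates.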"}, "NCI-H23": {"system": "NCI-H23", "procedure,_shortened": "as §1"}, "LOU-NH91": {"system": "LOU-NH91", "procedure,_shortened": "as §1"}, "NCI-H1666": {"system": "NCI-H1666", "procedure,_shortened": "as §1"}, "NCI-H460": {"system": "NCI-H460", "procedure,_shortened": "as §1"}, "NCI-H1355": {"system": "NCI-H1355", "procedure,_shortened": "as §1"}, "EKVX": {"system": "EKVX", "procedure,_shortened": "as §1"}, "NCI-H650": {"system": "NCI-H650", "procedure,_shortened": "as §1"}, "NCI-H838": {"system": "NCI-H838", "procedure,_shortened": "as §1"}, "NCI-H1650": {"system": "NCI-H1650", "procedure,_shortened": "as §1"}, "LU99A": {"system": "LU99A", "procedure,_shortened": "as §1"}, "NCI-H1993": {"system": "NCI-H1993", "procedure,_shortened": "as §1"}, "BEN": {"system": "BEN", "procedure,_shortened": "as §1"}, "A-427": {"system": "A-427", "procedure,_shortened": "as §1"}, "SW 1573": {"system": "SW 1573", "procedure,_shortened": "as §1"}, "LC-2-ad": {"system": "LC-2-ad", "procedure,_shortened": "as §1"}, "NCI-H1915": {"system": "NCI-H1915", "procedure,_shortened": "as §1"}, "NCI-H1793": {"system": "NCI-H1793", "procedure,_shortened": "as §1"}, "NCI-H520": {"system": "NCI-H520", "procedure,_shortened": "as §1"}, "LCLC-97TM1": {"system": "LCLC-97TM1", "procedure,_shortened": "as §1"}, "NCI-H2228": {"system": "NCI-H2228", "procedure,_shortened": "as §1"}, "PC-3 [JPC-3]": {"system": "PC-3 [JPC-3]", "procedure,_shortened": "as §1"}, "NCI-H2347": {"system": "NCI-H2347", "procedure,_shortened": "as §1"}}, "data": [{"compound": "Cc1cnc(-c2cnc(NCCNc3ccc(C#N)cn3)nc2-c2ccc(Cl)cc2Cl)[nH]1", "note": "+ O=C(CCCCCCC(=O)Nc1ccccc1)NO [Vorinostat] (partner 1 µM)", "values": [{"measurement": "relative viability", "setting": "RERF-LC-KJ; first compound 0.08 µM", "value": 0.815}, {"measurement": "relative viability", "setting": "RERF-LC-KJ; first compound 0.253 µM", "value": 0.565}, {"measurement": "relative viability", "setting": "RERF-LC-KJ; first compound 0.8 µM", "value": 0.58}, {"measurement": "relative viability", "setting": "RERF-LC-KJ; first compound 2.53 µM", "value": 0.677}, {"measurement": "relative viability", "setting": "NCI-H23; first compound 0.08 µM", "value": 0.568}, {"measurement": "relative viability", "setting": "NCI-H23; first compound 0.253 µM", "value": 0.475}, {"measurement": "relative viability", "setting": "NCI-H23; first compound 0.8 µM", "value": 0.575}, {"measurement": "relative viability", "setting": "NCI-H23; first compound 2.53 µM", "value": 0.529}, {"measurement": "relative viability", "setting": "LOU-NH91; first compound 0.08 µM", "value": 0.972}, {"measurement": "relative viability", "setting": "LOU-NH91; first compound 0.253 µM", "value": 0.878}, {"measurement": "relative viability", "setting": "LOU-NH91; first compound 0.8 µM", "value": 0.942}, {"measurement": "relative viability", "setting": "LOU-NH91; first compound 2.53 µM", "value": 0.978}, {"measurement": "relative viability", "setting": "NCI-H1666; first compound 0.08 µM", "value": 0.899}, {"measurement": "relative viability", "setting": "NCI-H1666; first compound 0.253 µM", "value": 1.05}, {"measurement": "relative viability", "setting": "NCI-H1666; first compound 0.8 µM", "value": 0.964}, {"measurement": "relative viability", "setting": "NCI-H1666; first compound 2.53 µM", "value": 1.1}, {"measurement": "relative viability", "setting": "NCI-H460; first compound 0.08 µM", "value": 0.71}, {"measurement": "relative viability", "setting": "NCI-H460; first compound 0.253 µM", "value": 0.618}, {"measurement": "relative viability", "setting": "NCI-H460; first compound 0.8 µM", "value": 0.625}, {"measurement": "relative viability", "setting": "NCI-H460; first compound 2.53 µM", "value": 0.58}, {"measurement": "relative viability", "setting": "NCI-H1355; first compound 0.08 µM", "value": 0.632}, {"measurement": "relative viability", "setting": "NCI-H1355; first compound 0.253 µM", "value": 0.544}, {"measurement": "relative viability", "setting": "NCI-H1355; first compound 0.8 µM", "value": 0.633}, {"measurement": "relative viability", "setting": "NCI-H1355; first compound 2.53 µM", "value": 0.651}, {"measurement": "relative viability", "setting": "EKVX; first compound 0.08 µM", "value": 0.789}, {"measurement": "relative viability", "setting": "EKVX; first compound 0.253 µM", "value": 0.529}, {"measurement": "relative viability", "setting": "EKVX; first compound 0.8 µM", "value": 0.658}, {"measurement": "relative viability", "setting": "EKVX; first compound 2.53 µM", "value": 0.745}, {"measurement": "relative viability", "setting": "NCI-H650; first compound 0.08 µM", "value": 0.544}, {"measurement": "relative viability", "setting": "NCI-H650; first compound 0.253 µM", "value": 0.423}, {"measurement": "relative viability", "setting": "NCI-H650; first compound 0.8 µM", "value": 0.4}, {"measurement": "relative viability", "setting": "NCI-H650; first compound 2.53 µM", "value": 0.443}, {"measurement": "relative viability", "setting": "NCI-H838; first compound 0.08 µM", "value": 0.726}, {"measurement": "relative viability", "setting": "NCI-H838; first compound 0.253 µM", "value": 0.723}, {"measurement": "relative viability", "setting": "NCI-H838; first compound 0.8 µM", "value": 0.856}, {"measurement": "relative viability", "setting": "NCI-H838; first compound 2.53 µM", "value": 1.06}, {"measurement": "relative viability", "setting": "NCI-H1650; first compound 0.08 µM", "value": 0.564}, {"measurement": "relative viability", "setting": "NCI-H1650; first compound 0.253 µM", "value": 0.508}, {"measurement": "relative viability", "setting": "NCI-H1650; first compound 0.8 µM", "value": 0.546}, {"measurement": "relative viability", "setting": "NCI-H1650; first compound 2.53 µM", "value": 0.661}, {"measurement": "relative viability", "setting": "LU99A; first compound 0.08 µM", "value": 0.592}, {"measurement": "relative viability", "setting": "LU99A; first compound 0.253 µM", "value": 0.523}, {"measurement": "relative viability", "setting": "LU99A; first compound 0.8 µM", "value": 0.535}, {"measurement": "relative viability", "setting": "LU99A; first compound 2.53 µM", "value": 0.559}, {"measurement": "relative viability", "setting": "NCI-H1993; first compound 0.08 µM", "value": 1.26}, {"measurement": "relative viability", "setting": "NCI-H1993; first compound 0.253 µM", "value": 0.761}, {"measurement": "relative viability", "setting": "NCI-H1993; first compound 0.8 µM", "value": 0.727}, {"measurement": "relative viability", "setting": "NCI-H1993; first compound 2.53 µM", "value": 0.76}, {"measurement": "relative viability", "setting": "BEN; first compound 0.08 µM", "value": 0.575}, {"measurement": "relative viability", "setting": "BEN; first compound 0.253 µM", "value": 0.559}, {"measurement": "relative viability", "setting": "BEN; first compound 0.8 µM", "value": 0.595}, {"measurement": "relative viability", "setting": "BEN; first compound 2.53 µM", "value": 0.559}, {"measurement": "relative viability", "setting": "A-427; first compound 0.08 µM", "value": 0.868}, {"measurement": "relative viability", "setting": "A-427; first compound 0.253 µM", "value": 0.826}, {"measurement": "relative viability", "setting": "A-427; first compound 0.8 µM", "value": 0.826}, {"measurement": "relative viability", "setting": "A-427; first compound 2.53 µM", "value": 0.854}, {"measurement": "relative viability", "setting": "SW 1573; first compound 0.08 µM", "value": 0.849}, {"measurement": "relative viability", "setting": "SW 1573; first compound 0.253 µM", "value": 0.815}, {"measurement": "relative viability", "setting": "SW 1573; first compound 0.8 µM", "value": 0.463}, {"measurement": "relative viability", "setting": "SW 1573; first compound 2.53 µM", "value": 0.224}, {"measurement": "relative viability", "setting": "LC-2-ad; first compound 0.08 µM", "value": 0.708}, {"measurement": "relative viability", "setting": "LC-2-ad; first compound 0.8 µM", "value": 0.705}, {"measurement": "relative viability", "setting": "LC-2-ad; first compound 2.53 µM", "value": 0.603}, {"measurement": "relative viability", "setting": "NCI-H1915; first compound 0.08 µM", "value": 0.532}, {"measurement": "relative viability", "setting": "NCI-H1915; first compound 0.8 µM", "value": 0.504}, {"measurement": "relative viability", "setting": "NCI-H1915; first compound 2.53 µM", "value": 0.513}, {"measurement": "relative viability", "setting": "NCI-H1793; first compound 0.08 µM", "value": 0.59}, {"measurement": "relative viability", "setting": "NCI-H1793; first compound 0.253 µM", "value": 0.666}, {"measurement": "relative viability", "setting": "NCI-H1793; first compound 0.8 µM", "value": 0.739}, {"measurement": "relative viability", "setting": "NCI-H1793; first compound 2.53 µM", "value": 0.864}, {"measurement": "relative viability", "setting": "NCI-H520; first compound 0.08 µM", "value": 0.814}, {"measurement": "relative viability", "setting": "NCI-H520; first compound 0.253 µM", "value": 0.678}, {"measurement": "relative viability", "setting": "NCI-H520; first compound 0.8 µM", "value": 0.725}, {"measurement": "relative viability", "setting": "NCI-H520; first compound 2.53 µM", "value": 0.772}, {"measurement": "relative viability", "setting": "LCLC-97TM1; first compound 0.08 µM", "value": 0.712}, {"measurement": "relative viability", "setting": "LCLC-97TM1; first compound 0.253 µM", "value": 0.462}, {"measurement": "relative viability", "setting": "LCLC-97TM1; first compound 0.8 µM", "value": 0.515}, {"measurement": "relative viability", "setting": "LCLC-97TM1; first compound 2.53 µM", "value": 0.515}, {"measurement": "relative viability", "setting": "NCI-H2228; first compound 0.08 µM", "value": 0.891}, {"measurement": "relative viability", "setting": "NCI-H2228; first compound 0.253 µM", "value": 0.642}, {"measurement": "relative viability", "setting": "NCI-H2228; first compound 0.8 µM", "value": 0.668}, {"measurement": "relative viability", "setting": "NCI-H2228; first compound 2.53 µM", "value": 0.693}, {"measurement": "relative viability", "setting": "PC-3 [JPC-3]; first compound 0.08 µM", "value": 0.811}, {"measurement": "relative viability", "setting": "PC-3 [JPC-3]; first compound 0.253 µM", "value": 0.713}, {"measurement": "relative viability", "setting": "PC-3 [JPC-3]; first compound 0.8 µM", "value": 0.726}, {"measurement": "relative viability", "setting": "PC-3 [JPC-3]; first compound 2.53 µM", "value": 0.838}, {"measurement": "relative viability", "setting": "NCI-H2347; first compound 0.08 µM", "value": 0.56}, {"measurement": "relative viability", "setting": "NCI-H2347; first compound 0.253 µM", "value": 0.568}, {"measurement": "relative viability", "setting": "NCI-H2347; first compound 0.8 µM", "value": 0.604}, {"measurement": "relative viability", "setting": "NCI-H2347; first compound 2.53 µM", "value": 0.597}]}]}
